Tests used:
[1] = biological target: T1, Adenosine receptor A3 (Mus musculus, UniProt Q61618); assay: Displacement of [125I]N6-(4-amino-3-iodobenzyl)adenosine-5-N-methyluronamide from mouse A3A adenosine receptor expressed in CHO cell membranes after 60 mins by scintillation proximity assay
T1 sequence (Q61618 whole entry): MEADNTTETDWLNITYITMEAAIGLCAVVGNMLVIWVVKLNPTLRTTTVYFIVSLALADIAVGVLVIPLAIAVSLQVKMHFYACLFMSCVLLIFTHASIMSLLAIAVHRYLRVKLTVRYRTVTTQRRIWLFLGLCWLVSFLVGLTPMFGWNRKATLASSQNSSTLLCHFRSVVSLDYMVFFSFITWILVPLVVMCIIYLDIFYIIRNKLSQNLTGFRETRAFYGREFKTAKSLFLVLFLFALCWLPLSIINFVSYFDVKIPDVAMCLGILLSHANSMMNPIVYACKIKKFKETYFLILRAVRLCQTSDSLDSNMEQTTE

[2] = biological target: T2, Adenosine receptor A1 (Mus musculus, UniProt Q60612); assay: Displacement of [3H]N6-R-phenylisopropyladenosine from mouse A1A adenosine receptor expressed in CHO cell membranes after 60 mins by scintillation proximity assay
T2 sequence (Q60612 whole entry): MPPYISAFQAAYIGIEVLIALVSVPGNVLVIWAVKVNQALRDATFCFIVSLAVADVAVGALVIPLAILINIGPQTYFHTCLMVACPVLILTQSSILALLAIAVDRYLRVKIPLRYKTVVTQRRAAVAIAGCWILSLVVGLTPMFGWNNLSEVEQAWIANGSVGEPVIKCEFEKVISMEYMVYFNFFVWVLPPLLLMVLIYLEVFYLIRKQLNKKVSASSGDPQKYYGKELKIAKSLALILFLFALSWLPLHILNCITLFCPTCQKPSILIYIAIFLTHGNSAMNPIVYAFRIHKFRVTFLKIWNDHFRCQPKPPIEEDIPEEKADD

[3] = biological target: Sigma intracellular receptor 2 (Homo sapiens, UniProt Q5BJF2); assay: Inhibition of sigma receptor 2 (unknown origin)
[4] = biological target: T3, Adenosine receptor A2a (Homo sapiens, UniProt P29274); assay: Displacement of [3H]2-[p-(2-carboxyethyl)phenylethylamino]-5-N-ethylcarboxamidoadenosine from human A2A adenosine receptor expressed in HEK293 cell membranes at 10 uM after 60 mins by scintillation proximity assay relative to adenosine 5-N-ethyluronamide
[5] = Fraction unbound in human plasma at 10 uM; type: ADME, cell-free
[6] = species: Mus musculus; assay: Selectivity index, ratio of Ki for mouse A3A adenosine receptor to Ki for mouse A1A adenosine receptor expressed in CHO cell membranes after 60 mins by scintillation proximity assay
[7] = tested on: Mus musculus; assay: Induction of hypothermia in C57BL/6J mouse assessed as body temperature at 3 mg/kg, ip measured at 60 mins post dose (reference value: 36.3 +/- 0.8 degC); type: functional
[8] = Fraction unbound in mouse plasma at 10 uM; type: ADME, cell-free
[9] = tested on: Mus musculus; assay: Induction of hypothermia in C57BL/6J mouse assessed as activity counts at 3 mg/kg, ip measured at 60 mins post dose (reference value: 15.5 +/- 5.5); type: functional
[10] = Fraction unbound in rat plasma at 10 uM; type: ADME, cell-free
[11] = biological target: T4, Adenosine receptor A1 (Mus musculus) (UniProt Q60612); assay: Agonist activity at mouse A1A adenosine receptor at 10 uM after 60 mins by [35S]GTPgammaS binding assay relative to (2S,3S,4R,5R)-5-(6-amino-9H-purin-9-yl)-N-ethyl-3,4-dihydroxytetrahydrofuran-2-carboxamide; type: functional
T4 sequence (whole entry): T2 sequence (Q60612 whole entry)

[12] = biological target: T5, Adenosine receptor A3 (Mus musculus) (UniProt Q61618); assay: Agonist activity at mouse A3AR adenosine receptor at 10 uM after 60 mins by [35S]GTPgammaS binding assay relative to (2S,3S,4R,5R)-5-(6-amino-9H-purin-9-yl)-N-ethyl-3,4-dihydroxytetrahydrofuran-2-carboxamide; type: functional
T5 sequence (whole entry): T1 sequence (Q61618 whole entry)

[13] = biological target: T6, Adenosine receptor A3 (Homo sapiens) (UniProt P0DMS8); assay: Displacement of [125I]N6-(4-amino-3-iodobenzyl)adenosine-5-N-methyluronamide from human A3A adenosine receptor expressed in CHO cell membranes at 10 uM after 60 mins by scintillation proximity assay relative to adenosine 5-N-ethyluronamide
T6 sequence (whole entry): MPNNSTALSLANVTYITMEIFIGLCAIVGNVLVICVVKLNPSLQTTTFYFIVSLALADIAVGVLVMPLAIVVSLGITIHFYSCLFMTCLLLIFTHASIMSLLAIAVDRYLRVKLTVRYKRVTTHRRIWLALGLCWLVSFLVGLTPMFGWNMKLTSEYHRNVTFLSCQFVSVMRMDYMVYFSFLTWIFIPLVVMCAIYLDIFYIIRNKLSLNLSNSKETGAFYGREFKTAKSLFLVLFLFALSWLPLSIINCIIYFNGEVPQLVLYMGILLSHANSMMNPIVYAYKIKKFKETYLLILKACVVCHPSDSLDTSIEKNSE

[14] = biological target: T7, Adenosine receptor A1 (Homo sapiens) (UniProt P30542); assay: Displacement of [3H]N6-R-phenylisopropyladenosine from human A1A adenosine receptor expressed in CHO cell membranes at 10 uM after 60 mins by scintillation proximity assay relative to adenosine 5-N-ethyluronamide
T7 sequence (whole entry): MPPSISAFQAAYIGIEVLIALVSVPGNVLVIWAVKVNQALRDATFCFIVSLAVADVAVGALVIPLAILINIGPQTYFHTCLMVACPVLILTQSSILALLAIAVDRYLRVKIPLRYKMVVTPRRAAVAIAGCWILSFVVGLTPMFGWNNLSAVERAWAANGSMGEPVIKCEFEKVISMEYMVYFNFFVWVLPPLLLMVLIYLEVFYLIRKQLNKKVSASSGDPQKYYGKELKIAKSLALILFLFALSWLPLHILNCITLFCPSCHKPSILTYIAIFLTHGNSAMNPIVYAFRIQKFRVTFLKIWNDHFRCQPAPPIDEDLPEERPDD

[15] = biological target: Translocator protein (Homo sapiens, UniProt P30536); assay: Inhibition of TSPO (unknown origin)
[16] = biological target: 5-hydroxytryptamine receptor 2B (Homo sapiens, UniProt P41595); assay: Inhibition of 5HT2B (unknown origin)
[17] = biological target: T8, Adenosine receptor A3 (Homo sapiens, UniProt P0DMS8); assay: Displacement of [125I]N6-(4-amino-3-iodobenzyl)adenosine-5-N-methyluronamide from human A3A adenosine receptor expressed in CHO cell membranes after 60 mins by scintillation proximity assay
T8 sequence (P0DMS8 whole entry): T6 sequence (whole entry)

[18] = biological target: T3, Adenosine receptor A2a; assay: Displacement of [3H]2-[p-(2-carboxyethyl)phenylethylamino]-5-N-ethylcarboxamidoadenosine from human A2A adenosine receptor expressed in HEK293 cell membranes after 60 mins by scintillation proximity assay
[19] = biological target: T5, Adenosine receptor A3 (Mus musculus); assay: Displacement of [125I]N6-(4-amino-3-iodobenzyl)adenosine-5-N-methyluronamide from mouse A3A adenosine receptor expressed in CHO cell membranes at 10 uM after 60 mins by scintillation proximity assay relative to adenosine 5-N-ethyluronamide
[20] = biological target: Adenosine receptor A2a (Mus musculus) (UniProt Q60613); assay: Displacement of [3H]2-[p-(2-carboxyethyl)phenylethylamino]-5-N-ethylcarboxamidoadenosine from mouse A2A adenosine receptor expressed in HEK293 cell membranes at 10 uM after 60 mins by scintillation proximity assay relative to adenosine 5-N-ethyluronamide
[21] = biological target: T9, Adenosine receptor A1 (Homo sapiens, UniProt P30542); assay: Displacement of [3H]N6-R-phenylisopropyladenosine from human A1A adenosine receptor expressed in CHO cell membranes after 60 mins by scintillation proximity assay
T9 sequence (P30542 whole entry): T7 sequence (whole entry)

[22] = tested on: Mus musculus; assay: Induction of hypothermia in C57BL/6J mouse assessed as activity counts at 10 mg/kg, ip measured at 60 mins post dose (reference value: 15.5 +/- 5.5); type: functional
[23] = tested on: Mus musculus; assay: Induction of hypothermia in C57BL/6J mouse assessed as body temperature at 10 mg/kg, ip measured at 60 mins post dose (reference value: 36.3 +/- 0.8 degC); type: functional
[24] = biological target: T10, 5-hydroxytryptamine receptor 2C (Homo sapiens, UniProt P28335); assay: Inhibition of 5HT2C (unknown origin)
T10 sequence (P28335 whole entry): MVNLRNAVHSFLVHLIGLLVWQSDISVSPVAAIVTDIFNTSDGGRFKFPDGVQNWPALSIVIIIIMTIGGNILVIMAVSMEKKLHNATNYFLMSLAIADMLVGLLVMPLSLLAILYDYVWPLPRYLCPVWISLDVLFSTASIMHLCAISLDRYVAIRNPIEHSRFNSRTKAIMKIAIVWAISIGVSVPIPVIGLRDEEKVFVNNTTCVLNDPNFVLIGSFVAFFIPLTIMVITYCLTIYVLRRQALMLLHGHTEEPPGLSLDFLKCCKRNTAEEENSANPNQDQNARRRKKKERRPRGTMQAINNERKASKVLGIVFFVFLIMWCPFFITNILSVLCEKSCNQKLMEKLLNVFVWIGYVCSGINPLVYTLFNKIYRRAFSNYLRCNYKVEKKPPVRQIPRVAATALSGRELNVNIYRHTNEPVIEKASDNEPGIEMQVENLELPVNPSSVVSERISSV

[25] = biological target: Sigma non-opioid intracellular receptor 1 (Homo sapiens, UniProt Q99720); assay: Inhibition of sigma receptor 1 (unknown origin)
Chain of Sigma non-opioid intracellular receptor 1 (Q99720 whole entry): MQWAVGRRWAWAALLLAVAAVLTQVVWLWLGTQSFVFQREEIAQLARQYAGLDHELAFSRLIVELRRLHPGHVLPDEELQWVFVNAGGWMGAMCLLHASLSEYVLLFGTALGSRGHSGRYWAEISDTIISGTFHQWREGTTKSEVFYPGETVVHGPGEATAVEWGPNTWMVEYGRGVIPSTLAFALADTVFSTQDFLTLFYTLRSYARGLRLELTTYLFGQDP

Chain of Sigma intracellular receptor 2 (Q5BJF2 whole entry): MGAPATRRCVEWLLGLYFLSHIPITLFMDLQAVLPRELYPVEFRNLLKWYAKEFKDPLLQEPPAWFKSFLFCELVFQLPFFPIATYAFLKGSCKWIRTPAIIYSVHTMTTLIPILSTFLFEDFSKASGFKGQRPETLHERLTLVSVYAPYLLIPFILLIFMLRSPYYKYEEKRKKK
Chain of Translocator protein (P30536 whole entry): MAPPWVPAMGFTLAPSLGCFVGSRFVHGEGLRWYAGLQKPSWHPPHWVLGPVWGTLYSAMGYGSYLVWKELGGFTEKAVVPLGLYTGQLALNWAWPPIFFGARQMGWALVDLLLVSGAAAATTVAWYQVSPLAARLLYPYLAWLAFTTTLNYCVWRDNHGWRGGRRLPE
T3 sequence (P29274 whole entry): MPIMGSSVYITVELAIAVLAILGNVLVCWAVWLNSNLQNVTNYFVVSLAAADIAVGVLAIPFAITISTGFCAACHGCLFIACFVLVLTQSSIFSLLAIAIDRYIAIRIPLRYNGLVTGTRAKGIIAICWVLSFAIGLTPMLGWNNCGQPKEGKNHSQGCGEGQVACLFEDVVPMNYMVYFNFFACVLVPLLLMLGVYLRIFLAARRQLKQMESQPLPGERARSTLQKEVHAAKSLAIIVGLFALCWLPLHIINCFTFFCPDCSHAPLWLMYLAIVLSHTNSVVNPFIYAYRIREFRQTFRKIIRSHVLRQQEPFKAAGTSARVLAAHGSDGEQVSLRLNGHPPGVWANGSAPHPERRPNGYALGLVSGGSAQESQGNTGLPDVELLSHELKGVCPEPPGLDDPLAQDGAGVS
Chain of Adenosine receptor A2a (Mus musculus) (Q60613 whole entry): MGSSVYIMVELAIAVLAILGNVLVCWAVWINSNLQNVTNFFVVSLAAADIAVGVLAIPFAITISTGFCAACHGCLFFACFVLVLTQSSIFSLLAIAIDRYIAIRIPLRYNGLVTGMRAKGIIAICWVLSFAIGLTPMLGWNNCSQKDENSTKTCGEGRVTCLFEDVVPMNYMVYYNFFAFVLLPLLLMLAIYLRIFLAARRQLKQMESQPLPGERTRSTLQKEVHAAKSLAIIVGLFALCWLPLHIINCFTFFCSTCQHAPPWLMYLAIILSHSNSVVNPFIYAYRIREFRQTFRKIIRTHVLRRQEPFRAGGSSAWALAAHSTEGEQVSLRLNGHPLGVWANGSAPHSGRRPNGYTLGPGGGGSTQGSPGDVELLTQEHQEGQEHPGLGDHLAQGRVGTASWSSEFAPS
Chain of 5-hydroxytryptamine receptor 2B (P41595 whole entry): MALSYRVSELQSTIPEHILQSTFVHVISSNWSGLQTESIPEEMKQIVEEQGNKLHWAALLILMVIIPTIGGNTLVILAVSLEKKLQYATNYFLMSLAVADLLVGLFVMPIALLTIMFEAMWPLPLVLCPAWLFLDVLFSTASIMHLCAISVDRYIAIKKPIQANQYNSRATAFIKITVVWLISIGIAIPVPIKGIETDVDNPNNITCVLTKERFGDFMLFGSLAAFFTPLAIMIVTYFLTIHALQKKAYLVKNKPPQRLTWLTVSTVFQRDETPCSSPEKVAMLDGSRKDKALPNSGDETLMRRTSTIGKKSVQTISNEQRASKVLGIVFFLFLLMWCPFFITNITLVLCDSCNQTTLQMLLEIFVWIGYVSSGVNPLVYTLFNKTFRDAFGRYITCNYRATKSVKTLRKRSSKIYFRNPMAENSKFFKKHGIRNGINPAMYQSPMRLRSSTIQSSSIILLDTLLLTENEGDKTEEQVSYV

OC[C@H]1O[C@@H](n2cnc3c(N[C@H]4C[C@H]5CC[C@@H]4C5)ncnc32)[C@H](O)[C@@H]1O
Ki [1]: 424 nM
Ki [2]: 0.14 nM

CCOC(=O)[C@@]12C[C@@H]1[C@@H](n1cnc3c(NC(C4CCC4)C4CCC4)nc(Cl)nc31)[C@H](O)[C@@H]2O
Ki [3]: 2020 nM
inhibition [4]: 57%

OC[C@H]1O[C@@H](n2cnc3c(NC(C4CCC4)C4CCC4)nc(Cl)nc32)[C@H](O)[C@@H]1O
Fu [5]: 5.81%
Ratio Ki [6]: 1000
T [7]: 35.5 °C
Fu [8]: 4.74%
Activity [9]: 13.5
Fu [10]: 4.64%
Emax [11]: 90%
Emax [12]: 63%

Nc1ncnc2c1ncn2[C@@H]1O[C@H](C(=O)O)[C@@H](O)[C@H]1O [5'-CARBOXY ADENOSINE]
Ki [3]: 796 nM
inhibition [4]: 11%
inhibition [13]: 32%
inhibition [14]: 24%

O[C@H]1[C@H](n2cnc3c(NC(C4CCC4)C4CCC4)ncnc32)[C@H]2C[C@@]2(CCl)[C@H]1O
Ki [3]: 1170 nM
T [7]: 35.9 °C
Ki [15]: 2020 nM
Activity [9]: 14.8
inhibition [4]: 38%
inhibition [13]: 49%

CNC(=O)[C@]12C[C@@H]1[C@@H](n1cnc3c(NC4CCCC4)nc(Cl)nc31)[C@H](O)[C@@H]2O
Ki [1]: 3.46 nM
Ki [2]: 0.68 nM
Ki [16]: 12 nM

O[C@@H]1[C@H](O)[C@@H](CCl)O[C@H]1n1cnc2c(NC3C[C@H]4CC[C@@H]3C4)ncnc21 (mixture of isomers)
Ki [17]: 1290 nM
Ki [1]: 2410 nM
Ki [18]: 1340 nM
T [7]: 32.2 °C
Activity [9]: 2.8

OC[C@@]12C[C@@H]1[C@@H](n1cnc3c(N[C@H]4C[C@H]5CC[C@@H]4C5)nc(Cl)cc31)[C@H](O)[C@@H]2O
inhibition [4]: 29%

NC(=O)c1ncn([C@@H]2O[C@H](CO)[C@@H](O)[C@H]2O)n1
inhibition [19]: 0%
inhibition [4]: 23%
inhibition [13]: 16%

O[C@H]1[C@H](n2cnc3c(NC(C4CCC4)C4CCC4)nc(Cl)nc32)[C@H]2C[C@@]2(CSc2ccccc2F)[C@H]1O
Ki [3]: 583 nM
inhibition [20]: 20%
inhibition [4]: 22%
inhibition [14]: 45%

O[C@@H]1[C@H](O)[C@@H](CSc2ccccc2F)O[C@H]1n1cnc2c(N[C@@H]3CCC[C@H]3O)ncnc21 [GS-9667]
Ki [18]: > 10000 nM
Ki [21]: 12 nM

O[C@H]1[C@H](n2cnc3c(NC(C4CCC4)C4CCC4)nc(Cl)nc32)[C@H]2C[C@@]2(CCl)[C@H]1O
Ki [3]: 349 nM
Activity [22]: 18.9
Ki [15]: 2890 nM
inhibition [20]: 20%
inhibition [4]: 17%
T [23]: 36.5 °C

OC[C@@]12C[C@@H]1[C@@H](n1cnc3c(NC(C4CCC4)C4CCC4)nc(Cl)nc31)[C@H](O)[C@@H]2O
Activity [22]: 18.4
Ki [15]: 2930 nM
inhibition [20]: 26%
inhibition [4]: 55%
inhibition [13]: 25%
T [23]: 36.6 °C

O[C@@H]1[C@H](O)[C@@H](CCl)O[C@H]1n1cnc2c(NC(C3CCC3)C3CCC3)ncnc21
Ki [3]: 662 nM
Activity [22]: 20.5
Ki [15]: 3980 nM
T [23]: 35.8 °C

COC(=O)c1ncn([C@H]2[C@H](O)[C@H](O)[C@]3(CO)C[C@H]23)n1
Ki [3]: 1720 nM
inhibition [19]: 15%
inhibition [4]: 14%
inhibition [13]: 22%
inhibition [14]: 6%

CCOC(=O)[C@@]12C[C@@H]1[C@@H](n1cnc3c(NC(C4CC4)C4CC4)nc(Cl)nc31)[C@H](O)[C@@H]2O
Ki [24]: 54 nM

O=C(NCCO)[C@@]12C[C@@H]1[C@@H](n1cnc3c(N[C@H]4C[C@H]5CC[C@@H]4C5)nc(Cl)nc31)[C@H](O)[C@@H]2O
inhibition [20]: 23%

Nc1nc(Cl)nc2c1ncn2[C@H]1[C@H](O)[C@H](O)[C@]2(CCl)C[C@H]12
Ki [3]: 2550 nM
Ki [17]: 253 nM
Ki [25]: 1970 nM
Ki [18]: 1750 nM
Ki [21]: 7.61 nM

O[C@H]1[C@H](n2cnc3c(N[C@H]4C[C@H]5CC[C@@H]4C5)nc(Cl)nc32)[C@H]2C[C@@]2(CCl)[C@H]1O
Fu [5]: 4.04%
Ratio Ki [6]: 270
T [7]: 36.6 °C
Fu [8]: 2.95%
Activity [9]: 16.8
inhibition [20]: 15%
Fu [10]: 2.53%
Emax [11]: 123%
inhibition [4]: 54%
Emax [12]: 50%

O[C@@H]1[C@H](O)[C@@H]2C[C@@H]2[C@H]1n1cnc2c(NC(C3CCCC3)C3CCCC3)nc(Cl)nc21
Ki [3]: 2010 nM
Ki [25]: 5090 nM
Ki [24]: 2920 nM

Source: ChEMBL document CHEMBL4368904 (J Med Chem, 2019)
